# Assay results as given in patent publication US20230346747A1, “DIALKYL T[…] THEIR […] USES” (CAAMTECH, INC., priority 2020, published 2023).
# What was measured:
# Format in all cases: in vitro ADME
# [1] = In vitro plasma stability, human plasma; conditions: 37° C.; for Percent remaining after 2 h incubation / k: 1.0 µM; for half-life at 1 µM: both sexes, pH 7.4, read-out: T½ (converted); for k: pH 7.4, slope of log % remaining versus incubation time
# Text: (§1) Human plasma (Bioreclamation, Cat#: BRH470404, male:female=1:1,v:v); Rat plasma (HDB, Cat#: HDB_RsP_20221120, male:female=1:1,v:v); C57 Mouse plasma (HDB, Cat#: HDB_MsP_202201120, male:female=1:1,v:v); Male cynomolgus monkey plasma (RILD, Cat#: MP210107-P). Analytical grade inorganic salts were purchased from Sinopharm Chemical Reagent Co. (Shanghai, China). HPLC grade organic solvents were purchased from Sigma-Aldrich, USA. Distilled water, prepared from demineralized water, was used throughout the study.
# (§2) Stock solution of test compound was provided in 100% DMSO. The stock solution for each compound was diluted into 100 µM with ACN(50%) and then diluted into plasma of different species (pH 7.4) to achieve a final concentration of 1.0 µM.
# (§3) 1.0 µM of test compound in duplicate was incubated in plasma at 37° C. Aliquots of 50 µL or 80 µL sample were collected at 0, 0.25, 0.5, 1 and 2 h.
# (§4) An aliquot of 50 µL samples were collected at various time points, and mixed with 300 µL of ice-cold 100% acetonitrile containing internal standard. After centrifuging the plate at 4000 rpm for 20 min, 50 µL of supernatants were added with 100 µL H2O, mix well and analyzed with UPLC-MS/MS.
# (§5) A Waters liquid chromatographic system was used. Detection was performed on an API4000 Q-Trap and API5500 mass spectrometer equipped with TurbolonSpray (ESI) Interface (Applied Biosystems, Concord, Ontario, Canada). Analyst 1.5 and 1.6.2 software packages (Applied Biosystems) were used to control the LC-MS/MS system, as well as for data acquisition and processing.
# (§6) Chromatographic separation was achieved on the Waters ACQUITY UPLC BEH C18 column (50*2.1 mm ID, 1.7 µm) and Thermo Scientific AccucoreTM PFP column(100*2.1 ID mm, 2.6 µm). The column temperature was maintained at ambient temperature (25° C.). The flow rate was maintained at 0.6 mL/min and the mobile phases used were according to Tables 5-7.
# (§7) The peak area ratio of test compound to internal standard is plotted as a percentage of the relevant zero time point control (% Remained) for each reaction. The rate of metabolism (k) is the slope of the linear regression from log percentage remaining versus incubation time.
# [2] = In vitro plasma stability, rat plasma; conditions: SD rat plasma, 37° C.; for half-life at 1 µM: both sexes, pH 7.4, read-out: T½ (converted)
# Text: as §1, §2, §3, §4, §5, §6, §7
# [3] = In vitro plasma stability, mouse plasma; conditions: C57 mouse plasma, 37° C.; for Percent remaining after 2 h incubation / k: 1.0 µM; for half-life at 1 µM: both sexes, pH 7.4, read-out: T½ (converted); for k: pH 7.4
# Text: as §1, §2, §3, §4, §5, §6, §7
# [4] = In vitro plasma stability, monkey plasma; conditions: cynomolgus monkey plasma, 37° C.; for half-life at 1 µM: male, pH 7.4, read-out: T½ (converted)
# Text: as §1, §2, §3, §4, §5, §6, §7
SMILES,Percent remaining after 2 h incubation [1],half-life at 1 µM [1],Percent remaining after 2 h incubation ([2]; 1.0 µM),half-life at 1 µM [2],Percent remaining after 2 h incubation [3],half-life at 1 µM [3],Percent remaining after 2 h incubation ([4]; 1.0 µM),half-life at 1 µM [4],"k ([2]; 1.0 µM, pH 7.4)",k [3],"k ([4]; 1.0 µM, pH 7.4)",k [1],"T½ ([2]; 1.0 µM, pH 7.4)","T½ ([4]; 1.0 µM, pH 7.4)"
"CC(=O)Oc1cccc2[nH]cc(CCN(C)C)c12 [Compound 4-AcO-DMT, 4-acetoxy-N,N-dimethyltryptamine]",0.00%,< 0.125 h,0.00%,< 0.125 h,0.00%,< 0.125 h,0.00%,< 0.125 h,–,–,–,–,–,–
COc1ccc([C@@H]2Sc3ccccc3N(CCN(C)C)C(=O)[C@@H]2OC(C)=O)cc1 [Diltiazem],80.5%,6.4 h,78.8%,6.75 h,87.9%,10.6 h,90.5%,12.8 h,–,–,–,–,–,–
CCN(CC)CCOC(=O)c1ccc(N)cc1 [Procaine],0.00%,< 0.125 h,52.0%,2 h,0.00%,< 0.125 h,0.00%,–,0.347,11.212,26.073,–,–,–
CN(C)CCc1c[nH]c2cccc(O)c12 [Psilocin],97.9%,20.5 h,86.2%,7.54 h,89.2%,14.5 h,92.8%,17.9 h,0.092,0.048,0.039,0.034,–,–
CN(C)CCc1c[nH]c2cccc(OP(=O)(O)O)c12 [Psilocybin],19.4%,0.82 h,113%,–,93.2%,91.5 h,113%,–,-0.066,0.008,-0.046,0.849,stable,stable
